Data taken from patent US9833437B2 (priority 2014, dated 2017).
Values joined by “and” are separate entries in the source; they are usually repeats but may differ in a detail not shown here. Identical values can stand only once. Like-named read-outs stand apart in the source and are kept apart here.

Tests used:
[1] = system: pro-inflammatory cytokine production of human PBMCs; type: cell-based
[2] = system: MyD88-mediated NF-kB driven SEAP reporter response; type: cell-based, human
Ebola virus = type: cell-based; conditions: read-out: IC50 reduction of virus replication
[3] = molecular target: T1, MyD88 and IRF3 interaction (Homo sapiens, UniProt Q99836); type: cell-based
T1 construct: no number printed for the IRF3-HA plasmid; host or cells: HEK293-TLR3 (InvivoGen)

[4] = system: lethal endotoxic shock (LPS) in mice; conditions: mouse, in vivo
VEEV (TC-83) = system: VEEV (TC-83); parameters: species or system C3H/HeN mice; conditions: mouse, in vivo, ip
Lassa virus = type: cell-based; conditions: read-out: IC50 reduction of virus replication
[5] = system: pro-inflammatory cytokine production in spleen cells of BALB/c and C57BL/6 mice; type: cell-based, mouse
Rift valley fever virus = type: cell-based; conditions: read-out: IC50 reduction of virus replication
[6] = system: SEB-induced toxic shock in BALB/c mice; conditions: mouse, in vivo
HEK293-TLR3 cells = type: cell-based, human
dengue virus = type: cell-based; conditions: read-out: IC50 reduction of virus replication
IRF3 phosphorylation = type: cell-based, human
[7] = system: human glioblastoma astrocytoma U87 cells; type: cell-based
U937 cells = type: cell-based, human

T1 sequence (Q99836 whole entry): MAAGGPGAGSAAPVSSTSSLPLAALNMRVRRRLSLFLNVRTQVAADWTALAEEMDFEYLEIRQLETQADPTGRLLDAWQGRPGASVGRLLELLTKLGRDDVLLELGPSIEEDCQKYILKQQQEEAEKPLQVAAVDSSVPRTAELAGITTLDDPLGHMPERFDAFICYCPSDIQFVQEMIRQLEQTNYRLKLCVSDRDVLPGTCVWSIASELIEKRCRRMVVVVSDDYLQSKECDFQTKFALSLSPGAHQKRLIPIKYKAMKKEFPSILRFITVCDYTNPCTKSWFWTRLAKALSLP

CC(C)[C@H](NC(=O)CCc1ccccc1)C(=O)N1CCCC1 [Compound 1, Hydrocinnamoyl-L-valyl-pyrrolidine, reference compound] was tested, and the IC50 ([1]; read-out: IC50 IFN-γ) was 41 µM and 40 µM, the IC50 ([1]; read-out: IC50 IL-1β) was 24 µM and the IC50 ([1]; read-out: IC50 IL-6) was 14 µM. For the same compound, the IC50 ([1]; read-out: IC50 TNF-α) was 19 µM and the IC50 [2] was 180 µM.

In the case of CC(C)[C@@H](C(=O)N1CCCC1)N(CCCc1ccccc1)C(=O)[C@H]1CC[C@H](C(=O)N(CCCc2ccccc2)[C@H](C(=O)N2CCCC2)C(C)C)CC1 [Compound 4210], the IC50 (Ebola virus) is reported as 42 µM, the “MyD88-associated IRF3 band after pull down with Flag antibody” value [3] is reported as “dose dependent decrease of IRF3 band” and the effect on death [4] is reported as “delayed death”. For the same compound, the “mice protected from lethal endotoxic shock” value [4] was 33%, the “inhibition of cytokine production” value [1] was “inhibited cytokine production” and the IC50 ([1]; read-out: IC50 IFN-γ) was 0.3 µM and 0.9 µM. For the same compound, the IC50 ([1]; read-out: IC50 IL-1β) was 0.73 µM, the IC50 ([1]; read-out: IC50 IL-6) was 0.4 µM and 0.17 µM and the IC50 ([1]; read-out: IC50 TNF-α) was 0.27 µM. For the same compound, the IC50 ([1]; read-out: average inhibitory concentration (IC50) for most of the pro-inflammatory cytokines tested) was 1 to 50 µM, the clinical disease score (VEEV (TC-83)) was “less clinical diseases score” and the survival (VEEV (TC-83)) was “increased survival”. The weight loss (VEEV (TC-83)) was “significantly prevented weight loss”, the IC50 (Lassa virus) was 35 µM and the “inhibition of pro-inflammatory cytokine production in spleen cell cultures” value [5] was “inhibited most of the pro-inflammatory cytokine production”. For the same compound, the IC50 (Rift valley fever virus) was 22 µM, the “amount giving therapeutic efficacy from toxic shock-induced death with lethal SEB challenge” value [6] was 1 mg and the “effect on death, post-exposure treatment” value [6] was “delayed in death”. For the same compound, the protection [6] was “completely protected”, the “protection, post-exposure treatment” value [6] was 33% and the survivability [6] was 33% and 66%. For the same compound, the RANTES production (HEK293-TLR3 cells) was “increased in RANTES production”, the IC50 (dengue virus) was 31 µM and the “phosphorylation of IRF-3” value (IRF3 phosphorylation) was “increase in phosphorylation was observed in a dose dependent manner”. The IFN-β production [7] was “increased IFN-β production in a dose dependent manner”, the RANTES production [7] was “increase in RANTES production” and the RANTES production (U937 cells) was “increase in antiviral RANTES production”. The “expression of co-stimulatory molecules CD86 and CD80” value (U937 cells) was “increased expression co-stimulatory molecules such as CD86 and CD80” and the “increase in IFN-β production” value (U937 cells) was “over 3 fold”.
